Tests used:
[1] = Dosing formulation stability (physical, potency, impurity profile); type: physicochemical; conditions: for Conc. (potency) / Observation (physical state): dosing formulation
Procedure: 5 mg/mL of test compound was formulated with 10% Dimethylacetamide (DMA), 30% Propylene Glycol, 35% PEG-300, 25% water (H2O). The formulation solution was stored at 4° C. and 25° C. The samples were retrieved at the following time points: 1 day, 3 days, 5 days, 7 days, 10 days and 14 days. The sample retrieved at each time point was examined visually observation of the physical state (texture and color) prior to sample preparation for analysis for physical stability. For chemical stability, the sample was diluted 1:250 dilution with acetonitrile (ACN) for potency analysis, and to 100 ug/mL final solution for impurity profile. The sample were prepared in triplication for potency analysis. The samples were then injected to HPLC for the determination of test compound concentration and its impurity profile. An Agilent 1260 Infinity II Lab LC Series HPLC system was used including 1260 Quat pump, 1260 vial autosampler, ICC column oven, and 1260 DAD WR detector. The chromatographic separation was achieved by a Phenomenex Synergi Polar RP column (150×4.6 mm, 4 μm, 80 Å). The flow rate was 1 mL/min and the detection was set at 254 nm. Injection volume was 10 uL, otherwise specified. The mobile phase consisted A, water with 0.1% trifluoroacetic acid and B, acetonitrile with 0.1% trifluoroacetic acid. […] For impurity profile, the gradient was A/B (99:1) from 0 minute; to A/B (1:99) from 0 to 15 minutes; A/B (1:99) from 15 to 18 minutes; to A/B (99:1) from 18 to 18.1 minutes; A/B (99:1) from 18.1 to 20 minutes. Data acquisition and peak integrations were obtained by OpenLAB CDS Version 2.4 (Agilent) operating with Windows (Microsoft).
Physical and chemical stability of dosing formulation lead to the investigation of potential impurities upon storage at various temperatures. The stability results can be used to assess the appropriate storage conditions and shelf life of a formulation, and can provide important information for drug formulation development, nonclinical, and clinical studies, especially on-going efficacy studies. The dosing formulation in these experiments contained 5 mg/mL test compound 1, with 10% Dimethylacetamide (DMA), 30% Propylene Glycol, 35% PEG-300, 25% water (H2O). The dosing formulation was stored at 4° C. and 25° C. The samples were retrieved at the following time points: 1 day and 3 days. The dosing formulation was diluted and analyzed for potency and impurity profile using reverse phase high pressure liquid chromatography. The impurity profile was described as the relative percent peak area of each peak detected.

[2] = system: colon cell line HCT; experiment: Gene expression (RNA-Seq) of colon cancer cells treated with Compound 156; type: cell-based, Human
Procedure: Methods: RNA was extracted from HTC colon cancer cells that has been treated or not with Compound 156 and was sent to the Technology Center for Genomics & Bioinformatics at UCLA for sequencing.
Library construction and sequencing methods: Libraries for RNA-Seq were prepared with TruSeq Stranded mRNA Library Prep Kit. The workflow consists of mRNA enrichment and fragmentation. Cleaved RNA fragments are copied into first strand cDNA using reverse transcriptase and random primers. Strand specificity is achieved by replacing dTTP with dUTP and followed by second strand cDNA synthesis using DNA Polymerase I and RNase H. cDNA generation is followed by A-tailing, adaptor ligation and PCR amplification. Different adaptors were used for multiplexing samples in one lane. Sequencing was performed on Illumina NovaSeq 6000 for PE 2×50 run. Data quality check was done on Illumina SAV. Demultiplexing was performed with Illumina Bcl2fastq v2.19.1.403 software.
Bioinformatics methods: The reads were mapped by STAR 2.27a to Human GRCh38 genome and read counts per gene were quantified using Ensembl Human GRCh38.98 GTF file. Gene differential expression analysis and downstream gene enrichment analysis was performed at Athos Therapeutics. The DESeq2 R package was used for differential expression analysis. DESeq2 FDR cutoff: 0.05, DESeq2 Log 2FC cutoff: 1 (FC cutoff: 2). Gene enrichment analysis was performed using the Enrichr (https://maayanlab.cloud/Enrichr/enrich) and gprofiler (https://biit.cs.ut.ee/gprofiler/gost) platforms.

[3] = cell cycle pathway, colon cell line HCT
[4] = p53 pathway, colon cell line HCT

COc1cc2c(NC3CCS(=O)(=O)CC3)nc(N3CCC(F)(F)CC3)nc2cc1OCCCN1CCCC1 [Compound 1, 4-((2-(4,4-difluoropiperidin-1-yl)-6-methoxy-7-(3-(pyrrolidin-1-yl)propoxy)quinazolin-4-yl)amino)tetrahydro-2H-thiopyran 1,1-dioxide]
Impurity Peak RRT 0.978, relative percent peak area ([1]; 4° C., day 0): 0.14% | Peak RRT 1.00 (Compound 1), relative percent peak area ([1]; 4° C., day 0): 99.86% | Impurity Peak RRT 0.978, relative percent peak area ([1]; 4° C., day 1): 0.14% | Peak RRT 1.00 (Compound 1), relative percent peak area ([1]; 4° C., day 1): 99.86% | Impurity Peak RRT 0.978, relative percent peak area ([1]; 4° C., day 3): 0.31% | Peak RRT 1.00 (Compound 1), relative percent peak area ([1]; 4° C., day 3): 99.69% | Impurity Peak RRT 0.978, relative percent peak area ([1]; 25° C., day 0): 0.14% | Peak RRT 1.00 (Compound 1), relative percent peak area ([1]; 25° C., day 0): 99.86% | Impurity Peak RRT 0.978, relative percent peak area ([1]; 25° C., day 1): 0.13% | Peak RRT 1.00 (Compound 1), relative percent peak area ([1]; 25° C., day 1): 99.87% | Impurity Peak RRT 0.978, relative percent peak area ([1]; 25° C., day 3): 0.30% | Peak RRT 1.00 (Compound 1), relative percent peak area ([1]; 25° C., day 3): 99.70% | Conc. (potency) ([1]; 4° C., day 0): 5560 µg/mL | Observation (physical state) ([1]; 4° C., day 0): Clear solution | Conc. (potency) ([1]; 4° C., day 1): 5570 µg/mL | Observation (physical state) ([1]; 4° C., day 1): Clear solution | Conc. (potency) ([1]; 4° C., day 3): 5650 µg/mL | Observation (physical state) ([1]; 4° C., day 3): Clear solution | Conc. (potency) ([1]; 25° C., day 0): 5560 µg/mL | Observation (physical state) ([1]; 25° C., day 0): Clear solution | Conc. (potency) ([1]; 25° C., day 1): 5470 µg/mL | Observation (physical state) ([1]; 25° C., day 1): Clear solution | Conc. (potency) ([1]; 25° C., day 3): 6090 µg/mL | Observation (physical state) ([1]; 25° C., day 3): Clear solution

COc1cc2c(NC3CCN(C(C)C)CC3)nc(-n3ccnc3)nc2cc1OCCCN1CCCC1 [Compound 156, 2-(1H-imidazol-1-yl)-N-(1-isopropylpiperidin-4-yl)-6-methoxy-7-(3-(pyrrolidin-1-yl)propoxy)quinazolin-4-amine]
Log2 Fold Change BUB1 [2, 3]: −5.157 | Log2 Fold Change BUB1B [2, 3]: −4.7094 | Log2 Fold Change CCNA2 [2, 3]: −5.163 | Log2 Fold Change CCNB1 [2, 3]: −4.231 | Log2 Fold Change CCNB2 [2, 3]: −5.041 | Log2 Fold Change CCNE2 [2, 3]: −5.409 | Log2 Fold Change CDC6 [2, 3]: −4.121 | Log2 Fold Change CDC7 [2, 3]: −2.499 | Log2 Fold Change CDC20 [2, 3]: −4.826 | Log2 Fold Change CDC25A [2, 3]: −2.858 | Log2 Fold Change CDC25C [2, 3]: −5.142 | Log2 Fold Change CDC45 [2, 3]: −4.679 | Log2 Fold Change CDK1 [2, 3]: −4.779 | Log2 Fold Change CDKN2C [2, 3]: −5.14 | Log2 Fold Change CHEK1 [2, 3]: −1.994 | Log2 Fold Change CHEK2 [2, 3]: −2.186 | Log2 Fold Change DBF4 [2, 3]: −2.536 | Log2 Fold Change E2F1 [2, 3]: −4.309 | Log2 Fold Change E2F2 [2, 3]: −5.296 | Log2 Fold Change ESPL1 [2, 3]: −4.821 | Log2 Fold Change MAD2L1 [2, 3]: −4.388 | Log2 Fold Change MCM2 [2, 3]: −3.686 | Log2 Fold Change MCM3 [2, 3]: −2.599 | Log2 Fold Change MCM4 [2, 3]: −3.347 | Log2 Fold Change MCM5 [2, 3]: −4.183 | Log2 Fold Change MCM6 [2, 3]: −3.834 | Log2 Fold Change MCM7 [2, 3]: −3.817 | Log2 Fold Change ORC1 [2, 3]: −4.987 | Log2 Fold Change ORC6 [2, 3]: −3.9103 | Log2 Fold Change PKMYT1 [2, 3]: −3.971 | Log2 Fold Change PLK1 [2, 3]: −4.8821 | Log2 Fold Change PTTG1 [2, 3]: −2.317 | Log2 Fold Change RBL1 [2, 3]: −3.043 | Log2 Fold Change SKP2 [2, 3]: −2.823 | Log2 Fold Change SMC1A [2, 3]: −1.934 | Log2 Fold Change TTK [2, 3]: −4.824 | Log2 Fold Change WEE1 [2, 3]: −2.394 | number of genes activated by p53 that were upregulated ([2]; data not shown): > 80 genes | number of genes regulated by E2F-1 and E2F-4 that were downregulated ([2]; data not shown): > 500 genes | Log2 Fold Change CCND1 [2, 4]: 1.792 | Log2 Fold Change CD82 [2, 4]: 1.878 | Log2 Fold Change CDKN1A [2, 4]: 3.19 | Log2 Fold Change FAS [2, 4]: 2.667 | Log2 Fold Change GADD45A [2, 4]: 1.969 | Log2 Fold Change MDM2 [2, 4]: 3.166 | Log2 Fold Change PMAIP1 [2, 4]: 3.102 | Log2 Fold Change RRM2B [2, 4]: 2.678 | Log2 Fold Change SERPINB5 [2, 4]: 2.471 | Log2 Fold Change SERPINE1 [2, 4]: 3.232 | Log2 Fold Change SESN1 [2, 4]: 1.955 | Log2 Fold Change SESN2 [2, 4]: 2.19 | Log2 Fold Change THBS1 [2, 4]: 1.872 | Log2 Fold Change TP53I3 [2, 4]: 3.87 | Log2 Fold Change ZMAT3 [2, 4]: 3.367 | genes related to cell cycle ([2]; treated vs not treated): downregulated | p-53 related genes ([2]; treated vs not treated): upregulated

Reference: patent US11485728B2, “Small molecules for the treatment of autoimmune diseases and cancer” (Athos Therapeutics, Inc., priority 2020, dated 2022)
